Measured values as given in US11932634B2 (Gilead Sciences, Inc., priority 2021, dated 2024).

Columns and labels:
human DGKα = target: T1, human DGKα (Homo sapiens, UniProt P23743); test: DGKα Biochemical Activity Assay (ADP-Glo);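 note: recombinant enzyme converting diacylglycerol in lipid micelles with ATP, ADP formed detected by luminescence, IC50 from a four-parameter nonlinear fit, geometric mean across experiments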
T1 construct: purchased Carna Biosciences'; inferred from the same paragraph's 'obtained from Carna Biosciences')
T1 sequence (P23743 whole entry): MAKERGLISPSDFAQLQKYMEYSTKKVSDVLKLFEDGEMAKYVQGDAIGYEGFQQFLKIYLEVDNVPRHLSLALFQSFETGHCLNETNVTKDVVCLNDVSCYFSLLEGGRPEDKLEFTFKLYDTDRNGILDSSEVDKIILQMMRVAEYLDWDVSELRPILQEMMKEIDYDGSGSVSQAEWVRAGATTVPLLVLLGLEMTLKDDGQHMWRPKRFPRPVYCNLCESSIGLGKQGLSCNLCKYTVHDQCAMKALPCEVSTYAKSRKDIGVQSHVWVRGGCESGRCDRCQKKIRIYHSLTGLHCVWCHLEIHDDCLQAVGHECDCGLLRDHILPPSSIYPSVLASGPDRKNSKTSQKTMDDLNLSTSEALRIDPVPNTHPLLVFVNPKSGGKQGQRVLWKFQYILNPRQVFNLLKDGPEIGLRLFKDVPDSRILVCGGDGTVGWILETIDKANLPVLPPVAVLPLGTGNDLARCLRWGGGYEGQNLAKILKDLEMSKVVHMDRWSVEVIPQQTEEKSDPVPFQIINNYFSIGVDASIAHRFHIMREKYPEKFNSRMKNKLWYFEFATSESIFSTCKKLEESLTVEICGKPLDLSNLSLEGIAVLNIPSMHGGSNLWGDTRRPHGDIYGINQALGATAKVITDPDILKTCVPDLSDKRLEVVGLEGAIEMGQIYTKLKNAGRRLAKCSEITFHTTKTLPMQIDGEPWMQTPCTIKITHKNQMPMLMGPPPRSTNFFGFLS

[1] = system: Jurkat NFκB-luciferase cells; test: Jurkat NFκB-Luciferase Assay; format: cell-based; settings: Homo sapiens; Jurkat NFκB-luciferase cells activated with anti-CD3 antibody (OKT3), 2.5 hrs at 37° C., One-Glo Ex; geometric mean; read-out: DGK NFKb Luciferase EC50;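 note: bioluminescence read-out normalized to DMSO basal activation and to maximum enhancement at 1 µM compound, rising signal indicating stronger T-cell activation through DGKα inhibition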

Row | Compound | IC50 (human DGKα) [nM] | EC50 [1] [nM]
1 | [2H]C([2H])([2H])n1c(=O)nc(N2CCCOc3c(C#CC4(C)CC4)cccc32)c2c(F)cccc21 [Example 84, 5-fluoro-4-[9-[2-(1-methylcyclopropyl)ethynyl]-3,4-dihydro-2H-1,5-benzoxazepin-5-yl]-1-(trideuteriomethyl)quinazolin-2-one] | 3.67 | 0.461
2 | [2H]C([2H])([2H])n1c(=O)nc(N2CCCCc3c(C#CC(C)(C)O)cccc32)c2c(F)cccc21 [Example 85, 5-fluoro-4-[6-(3-hydroxy-3-methyl-but-1-ynyl)-2,3,4,5-tetrahydro-1-benzazepin-1-yl]-1-(trideuteriomethyl)quinazolin-2-one] | 3.31 | 4.08
3 | [2H]C([2H])([2H])n1c(=O)nc(N2CCCCc3c(C#CC4(C)CC4)cccc32)c2c(F)cccc21 [Example 86, 5-fluoro-4-[6-[2-(1-methylcyclopropyl)ethynyl]-2,3,4,5-tetrahydro-1-benzazepin-1-yl]-1-(trideuteriomethyl)quinazolin-2-one] | 1.13 | 0.133
4 | CC(C)(O)C#Cc1cccc2c1COCCN2c1nc(=O)[nH]c2cccc(F)c12 [Example 87, 5-fluoro-4-[6-(3-hydroxy-3-methyl-but-1-ynyl)-3,5-dihydro-2H-4,1-benzoxazepin-1-yl]-1H-quinazolin-2-one] | 9.58 | 30.9
5 | CC(C)(O)C#Cc1cccc2c1COCCN2c1nc(=O)[nH]c2ccc(F)c(F)c12 [Example 88, 5,6-difluoro-4-[6-(3-hydroxy-3-methyl-but-1-ynyl)-3,5-dihydro-2H-4,1-benzoxazepin-1-yl]-1H-quinazolin-2-one] | 4.7 | 21.9
6 | O=c1nc(N2CCOCc3c(C#CC4(C(F)(F)F)CC4)cccc32)c2c(F)c(F)ccc2[nH]1 [Example 89, 5,6-difluoro-4-[6-[2-[1-(trifluoromethyl)cyclopropyl]ethynyl]-3,5-dihydro-2H-4,1-benzoxazepin-1-yl]-1H-quinazolin-2-one] | 2.26 | 0.258
7 | CC(C)(C#N)C#Cc1cccc2c1COCCN2c1nc(=O)[nH]c2ccc(F)c(F)c12 [Example 91, 4-[1-(5,6-difluoro-2-oxo-1H-quinazolin-4-yl)-3,5-dihydro-2H-4,1-benzoxazepin-6-yl]-2,2-dimethyl-but-3-ynenitrile] | 5.24 | 2.67
8 | CC(C)(C#Cc1cccc2c1COCCN2c1nc(=O)[nH]c2cccc(F)c12)C(F)(F)F [Example 92, 5-fluoro-4-(6-(4,4,4-trifluoro-3,3-dimethylbut-1-yn-1-yl)-2,3-dihydrobenzo[e][1,4]oxazepin-1(5H)-yl)quinazolin-2(1H)-one] | 37.4 | 1.66
9 | CC1(C#Cc2cccc3c2COCCN3c2nc(=O)[nH]c3cccc(F)c23)COC1 [Example 93, 5-fluoro-4-(6-((3-methyloxetan-3-yl)ethynyl)-2,3-dihydrobenzo[e][1,4]oxazepin-1(5H)-yl)quinazolin-2(1H)-one] | 6.6 | 7.25
10 | [2H]C([2H])([2H])n1c(=O)nc(N2CCOCc3c(C#CC(C)(C)O)cccc32)c2c(F)cccc21 [Example 94, 5-fluoro-4-[6-(3-hydroxy-3-methyl-but-1-ynyl)-3,5-dihydro-2H-4,1-benzoxazepin-1-yl]-1-(trideuteriomethyl)quinazolin-2-one] | 7.77 | 16.1
11 | [2H]C([2H])([2H])n1c(=O)nc(N2CCOCc3c(C#CC(C)(C)C#N)cccc32)c2c(F)cccc21 [Example 95, 4-[1-[5-fluoro-2-oxo-1-(trideuteriomethyl)quinazolin-4-yl]-3,5-dihydro-2H-4,1-benzoxazepin-6-yl]-2,2-dimethyl-but-3-ynenitrile] | 2.1 | 2.29
12 | [2H]C([2H])([2H])n1c(=O)nc(N2CCOCc3c(C#CC(C)(C)O)cccc32)c2c(F)c(F)ccc21 [Example 97, 5,6-difluoro-4-[6-(3-hydroxy-3-methyl-but-1-ynyl)-3,5-dihydro-2H-4,1-benzoxazepin-1-yl]-1-(trideuteriomethyl)quinazolin-2-one] | 4.37 | 15.8
13 | [2H]C([2H])([2H])n1c(=O)nc(N2CCOCc3c(C#CC(C)(C)C#N)cccc32)c2c(F)c(F)ccc21 [Example 98, 4-[1-[5,6-difluoro-2-oxo-1-(trideuteriomethyl)quinazolin-4-yl]-3,5-dihydro-2H-4,1-benzoxazepin-6-yl]-2,2-dimethyl-but-3-ynenitrile] | 2.83 | 3.29
14 | [2H]C([2H])([2H])n1c(=O)nc(N2CCOCc3c(Br)cccc32)c2c(F)cccc21 [Example 99, 4-(6-bromo-2,3-dihydrobenzo[e][1,4]oxazepin-1(5H)-yl)-5-fluoro-1-(methyl-d3)quinazolin-2(1H)-one] | 31.2 | 8.22
15 | [2H]C([2H])([2H])n1c(=O)nc(N2CCOCc3c(C#CC4(C(F)(F)F)CC4)cccc32)c2c(F)cccc21 [Example 100, 5-fluoro-1-(methyl-d3)-4-(6-((1-(trifluoromethyl)cyclopropyl)ethynyl)-2,3-dihydrobenzo[e][1,4]oxazepin-1(5H)-yl)quinazolin-2(1H)-one] | 16.6 | 0.979
16 | [2H]C([2H])([2H])n1c(=O)nc(N2CCOCc3c(C#CC4(C)COC4)cccc32)c2c(F)cccc21 [Example 101, 5-fluoro-1-(methyl-d3)-4-(6-((3-methyloxetan-3-yl)ethynyl)-2,3-dihydrobenzo[e][1,4]oxazepin-1(5H)-yl)quinazolin-2(1H)-one] | 2.62 | 4.09

Row | Compound | IC50 (human DGKα) [nM] | EC50 [1] [nM]
17 | O=c1nc(N2CCOCc3c(C#CC4(C(F)(F)F)CC4)cccc32)c2cc(F)cc(F)c2[nH]1 [Example 102] | 14.7 | 1.75
18 | CC(C)(O)C#Cc1cccc2c1COCCN2c1nc(=O)[nH]c2c(F)cc(F)cc12 [Example 103] | 8.98 | 47.4
19 | CC(C)(C#N)C#Cc1cccc2c1COCCN2c1nc(=O)[nH]c2c(F)cc(F)cc12 [Example 104] | 4.88 | 5.21
20 | CC1(C#Cc2cccc3c2COCCN3c2nc(=O)[nH]c3c(F)cc(F)cc23)CC1 [Example 105] | 6.96 | 0.85
21 | CC1(C#Cc2cncc3c2CCCN3c2nc(=O)[nH]c3ccc(F)c(F)c23)CC1 [Example 107, 5,6-difluoro-4-(5-((1-methylcyclopropyl)ethynyl)-3,4-dihydro-1,7-naphthyridin-1(2H)-yl)quinazolin-2(1H)-one] | 7.96 | 0.596
22 | O=c1nc(N2CCCc3c(C#CC4(C(F)F)CC4)cncc32)c2c(F)c(F)ccc2[nH]1 [Example 108, 4-(5-((1-(difluoromethyl)cyclopropyl)ethynyl)-3,4-dihydro-1,7-naphthyridin-1(2H)-yl)-5,6-difluoroquinazolin-2(1H)-one] | 6.85 | 1.43
23 | [2H]C([2H])([2H])n1c(=O)nc(N2CCOCc3c(C#CC(C)(C)C(F)(F)F)cccc32)c2c(F)cccc21 [Example 109, 5-fluoro-1-(methyl-d3)-4-(6-(4,4,4-trifluoro-3,3-dimethylbut-1-yn-1-yl)-2,3-dihydrobenzo[e][1,4]oxazepin-1(5H)-yl)quinazolin-2(1H)-one] | 6.05 | 0.501
24 | CC(C)(C#N)C#Cc1cccc2c1COCCN2c1nc(=O)[nH]c2cccc(F)c12 [Example 110, 4-(1-(5-fluoro-2-oxo-1,2-dihydroquinazolin-4-yl)-1,2,3,5-tetrahydrobenzo[e][1,4]oxazepin-6-yl)-2,2-dimethylbut-3-ynenitrile] | 6.52 | 2.82
25 | [2H]C([2H])([2H])n1c(=O)nc(N(CC(F)F)c2cccc(C#CC(C)(C)O)c2F)c2c(F)cccc21 [Example 111, 4-[N-(2,2-difluoroethyl)-2-fluoro-3-(3-hydroxy-3-methyl-but-1-ynyl)anilino]-5-fluoro-1-(trideuteriomethyl)quinazolin-2-one] | 3.11 | 9.32
26 | CC(F)(F)C1(C#Cc2cccc3c2COCCN3c2nc(=O)[nH]c3cccc(F)c23)CC1 [Example 112, 4-(6-((1-(1,1-difluoroethyl)cyclopropyl)ethynyl)-2,3-dihydrobenzo[e][1,4]oxazepin-1(5H)-yl)-5-fluoroquinazolin-2(1H)-one] | 23.6 | 0.973
27 | CC(C)(O)C#Cc1nccc(N(CC(F)F)c2nc(=O)[nH]c3cccc(F)c23)c1F [Example 113, 4-[2,2-difluoroethyl-[3-fluoro-2-(3-hydroxy-3-methyl-but-1-ynyl)-4-pyridyl]amino]-5-fluoro-1H-quinazolin-2-one] | 10.4 | 66.3
28 | CC(C)(O)C#Cc1cc(F)cc(N(CC(F)F)c2nc(=O)[nH]c3c(Cl)cc(F)cc23)c1 [Example 114, 8-chloro-4-[N-(2,2-difluoroethyl)-3-fluoro-5-(3-hydroxy-3-methyl-but-1-ynyl)anilino]-6-fluoro-1H-quinazolin-2-one] | 445 | 112
29 | CC1(C#Cc2nccc(N(CC(F)F)c3nc(=O)[nH]c4cccc(F)c34)c2F)CC1 [Example 115, 4-[2,2-difluoroethyl-[3-fluoro-2-[2-(1-methylcyclopropyl)ethynyl]-4-pyridyl]amino]-5-fluoro-1H-quinazolin-2-one] | 6.05 | 1.21
30 | O=c1nc(N2CCCc3c2ccnc3C#CC2(C(F)(F)F)CC2)c2c(F)c(F)ccc2[nH]1 [Example 116, 5,6-difluoro-4-[5-[2-[1-(trifluoromethyl)cyclopropyl]ethynyl]-3,4-dihydro-2H-1,6-naphthyridin-1-yl]-1H-quinazolin-2-one] | 4.07 | 0.945
31 | [2H]C([2H])([2H])n1c(=O)nc(N(CC(F)F)c2ccnc(C#CC3(C)CC3)c2)c2c(F)c(F)ccc21 [Example 117, 4-[2,2-difluoroethyl-[2-[2-(1-methylcyclopropyl)ethynyl]-4-pyridyl]amino]-5,6-difluoro-1-(trideuteriomethyl)quinazolin-2-one] | 3.36 | 4.7
